Measurements published in patent publication US20260055126A1, “SMALL MOLECULE COMPOUNDS WITH PHOSPHORYLATED ARYL STRUCTURES AND USE THEREOF” (HANGZHOU PHECDAMED CO., LTD., priority 2022, published 2026).

Legend:
[1] = system: recombinant TEAD1 protein (194-411, Uniprot ID: P28347); experiment: Thermal shift assay (protein melting point curve), TEAD1; type: binding; parameters: key to the marks not given beside the values; conditions: 10 μM TEAD protein, 50 μM test compound
Protocol: (§1) The ability of the compounds to increase the melting point of purified recombinant TEAD1/2/3/4 proteins is tested using a thermal shift assay. The strength of the compound's binding to the protein and the selectivity of the compound's binding to the four TEAD subtypes are evaluated by calculating the melting point shift ΔTm−° C. […] Based on the Δ Tm value, the ability of the compound to bind to the TEAD protein is divided into four levels: ++++, +++, ++, +.
(§2) Test method of protein melting point curve: 10 μL of the protein melting point curve experimental system (10 μM TEAD protein, 50 μM test compound, SYPRO® orange (55692, sigma)) is prepared in a 384-well fluorescence quantitative PCR plate according to the following system, and reacted at 4° C. in the dark for 20 minutes. On-machine reaction: ABI QuantStudio Dx fluorescence quantitative PCR instrument; program: from 25° C. to 80° C., increasing the temperature at a rate of 0.05° C./s, and reading the fluorescence channel signal of the corresponding wavelength of SYPRO® orange every second.

[2] = biological target: recombinant TEAD2 protein (218-447, Uniprot ID: Q15562) (Homo sapiens (Human), UniProt Q15562); experiment: Thermal shift assay (protein melting point curve), TEAD2; type: binding; conditions: 10 μM TEAD protein, 50 μM test compound
Chain of recombinant TEAD2 protein (218-447, Uniprot ID: Q15562) (Q15562 218-447): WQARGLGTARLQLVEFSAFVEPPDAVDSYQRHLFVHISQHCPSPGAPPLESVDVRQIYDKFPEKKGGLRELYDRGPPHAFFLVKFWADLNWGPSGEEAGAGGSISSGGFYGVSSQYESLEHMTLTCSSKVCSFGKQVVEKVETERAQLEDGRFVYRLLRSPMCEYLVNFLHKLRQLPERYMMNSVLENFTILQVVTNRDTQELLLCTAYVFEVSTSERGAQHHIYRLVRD
Protocol: as §1, §2

[3] = biological target: recombinant TEAD3 protein (218-435, Uniprot ID: Q99594) (Homo sapiens (Human), UniProt Q99594); experiment: Thermal shift assay (protein melting point curve), TEAD3; type: binding; conditions: 10 μM TEAD protein, 50 μM test compound
Chain of recombinant TEAD3 protein (218-435, Uniprot ID: Q99594) (Q99594 218-435): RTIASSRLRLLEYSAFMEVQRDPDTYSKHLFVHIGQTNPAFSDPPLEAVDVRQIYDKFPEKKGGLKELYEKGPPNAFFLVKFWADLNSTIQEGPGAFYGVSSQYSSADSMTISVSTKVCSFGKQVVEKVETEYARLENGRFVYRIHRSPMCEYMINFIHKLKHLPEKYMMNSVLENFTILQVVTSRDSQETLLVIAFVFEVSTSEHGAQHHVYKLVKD
Protocol: as §1, §2

[4] = biological target: recombinant TEAD4 protein (217-434, Uniprot ID: Q15561) (Homo sapiens (Human), UniProt Q15561); experiment: Thermal shift assay (protein melting point curve), TEAD4; type: binding; conditions: 10 μM TEAD protein, 50 μM test compound
Chain of recombinant TEAD4 protein (217-434, Uniprot ID: Q15561) (Q15561 217-434): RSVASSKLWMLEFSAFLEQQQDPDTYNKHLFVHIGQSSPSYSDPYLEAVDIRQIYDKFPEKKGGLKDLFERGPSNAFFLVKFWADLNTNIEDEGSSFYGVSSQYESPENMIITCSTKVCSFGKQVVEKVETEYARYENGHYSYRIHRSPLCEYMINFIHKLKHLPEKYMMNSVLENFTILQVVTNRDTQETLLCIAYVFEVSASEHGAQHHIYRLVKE
Protocol: as §1, §2

[5] = In vitro liver microsome stability, mouse; type: in vitro ADME; conditions: for metabolic stability: mouse liver microsome environment; for mouse half-life: mouse liver microsomes
Protocol: (§3) Testosterone is selected as the positive reference compound. The specific method is as follows:
(§4) Preparing 0.1MK3 PO4 (pH 7.4) buffer and 3×NADPH stock solution (6 mM, 5 mg/mL), and preheating in a 37° C. water bath; preparing spiking solution of tested compound and control compound: adding 5 μL compound stock solution (10 mM) to 95 μL acetonitrile; preparing 1.5 μM spiking solution in microsomes (0.75 mg/mL): add 1.5 μL spiking solution and 18.75 μL liver microsome solution (20 mg/mL) to 479.75 μL K3PO4 buffer; taking 30 μL spiking solution in microsomes and adding it to the multiwell plate, and incubating at 37° C. for 5 min; adding 15 μL of NADPH stock solution to each well, starting to react, and timing; adding 150 μL of acetonitrile solution containing IS at 0 min, 5 min, 15 min, 30 min, 45 min and 60 min respectively to terminate the reaction; after 10 min of oscillation, centrifuging the reaction at 6000 rpm for 15 min; taking 80 μL of supernatant from each well for LC/MS detection and calculating Ti/2.
(§5) Liver microsomes of mice, rats, dogs, and human used in the experiment are purchased from Xenotech.

[6] = In vitro liver microsome stability, human; type: in vitro ADME; conditions: for metabolic stability: human liver microsome environment; for human half-life: human liver microsomes
Protocol: as §3, §4, §5

TEAD family proteins = experiment: Thermal shift assay, summary over all TEAD subtypes; type: binding; conditions: summary of Table 1
Protocol: as §1, §2

[7] = biological target: recombinant TEAD1 protein central pocket (Homo sapiens (Human), UniProt P28347); experiment: Competitive thiol binding assay (CPM assay), TEAD1; conditions: 150 nM recombinant TEAD protein, 150 nM CPM
Chain of recombinant TEAD1 protein central pocket (P28347 whole entry): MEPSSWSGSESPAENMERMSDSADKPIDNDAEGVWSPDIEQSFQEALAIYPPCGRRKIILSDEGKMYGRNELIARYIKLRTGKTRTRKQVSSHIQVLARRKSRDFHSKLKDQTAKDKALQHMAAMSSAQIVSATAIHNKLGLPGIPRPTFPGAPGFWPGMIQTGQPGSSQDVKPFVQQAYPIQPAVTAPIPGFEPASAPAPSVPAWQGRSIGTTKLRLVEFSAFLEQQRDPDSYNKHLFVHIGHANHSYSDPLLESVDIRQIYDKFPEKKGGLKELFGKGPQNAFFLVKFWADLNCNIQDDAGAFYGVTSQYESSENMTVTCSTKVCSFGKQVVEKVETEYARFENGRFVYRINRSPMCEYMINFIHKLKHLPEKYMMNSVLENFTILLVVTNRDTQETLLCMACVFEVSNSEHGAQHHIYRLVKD
Protocol: (§6) Diluting the tested compound in gradient to 5 uL with buffer (25 mM HEPES, 150 mM NaCl, pH6.5), then adding 5 μL of the newly prepared 0.45 uM recombinant TEAD protein solution, and incubating at room temperature for 10 minutes. […] After shaking the plate at room temperature for 1 hour, measuring the fluorescence intensity (Ex/Em: 380/470 nm).

[8] = biological target: recombinant TEAD4 protein central pocket (Homo sapiens (Human), UniProt Q15561); experiment: Competitive thiol binding assay (CPM assay), TEAD4; conditions: 150 nM recombinant TEAD protein, 150 nM CPM
Chain of recombinant TEAD4 protein central pocket (Q15561 whole entry): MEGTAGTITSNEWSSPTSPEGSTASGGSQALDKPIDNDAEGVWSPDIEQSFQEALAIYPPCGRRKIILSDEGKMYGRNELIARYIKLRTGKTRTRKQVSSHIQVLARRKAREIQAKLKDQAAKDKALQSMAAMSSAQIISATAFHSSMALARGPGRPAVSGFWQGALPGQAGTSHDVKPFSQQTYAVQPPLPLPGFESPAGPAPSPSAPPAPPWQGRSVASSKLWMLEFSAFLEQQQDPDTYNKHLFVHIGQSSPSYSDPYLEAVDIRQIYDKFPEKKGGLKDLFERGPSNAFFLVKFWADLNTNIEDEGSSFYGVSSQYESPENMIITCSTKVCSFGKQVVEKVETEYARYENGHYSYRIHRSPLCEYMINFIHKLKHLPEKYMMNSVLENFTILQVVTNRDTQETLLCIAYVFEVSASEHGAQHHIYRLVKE
Protocol: as §6

[9] = Mouse plasma pharmacokinetic test; type: in vivo, CD-1 mice
Text: In this example, different compounds are used to perform a mouse pharmacokinetic experiment, and the specific steps are as follows: Animal information: CD-1 mice, male, about 20 g, purchase from Beijing Weitonglihua Experimental Animal Technology Co., Ltd.
Animal dietary status: Animals are not fasted before administration and allowed to drink water freely.
Compound preparation method: for intragastric administration (IG)(G1 group), preparing with 0.5% CMC-Na, and for intravenous injection(IV) (G2 group), preparing 5% DMSO+30% PEG400+65% water. […]
Sampling time points of G1 group: 8 points in total, namely 10 min, 30 min, 1 h, 2 h, 4 h, 6 h, 8 h and 24 h after administration, among them, animals G1M01-G1M03 are sampled at 3 time points, namely 10 min, 1 h and 6 h; animals G1M04-G1M06 are sampled at 3 time points, namely 30 min, 2 h and 8 h; animals G1M07-G1M09 are sampled at 2 time points, namely 4 h and 24 h.
Sampling time points of G2 group: 9 points in total, namely 5 min, 10 min, 30 min, 1 h, 2 h, 4 h, 6 h, 8 h, 24 h after administration. It is recommended that animals G2M01-G2M03 are sampled at 3 time points, namely 5 min, 1 h, and 6 h; animals G2M04-G2M06 are sampled at 3 time points, namely 10 min, 2 h, and 8 h; animals G2M07-G2M09 are sampled at 3 time points, namely 30 min, 4 h, and 24 h.
Sample collection: On the day of the experiment, collecting approximately 0.1 mL of whole blood samples at each preset time point and placing in EDTA-K2 anticoagulant tubes.
Sample processing: Within 30 minutes after whole blood sample collection, centrifuging at 4° C., 12,000 rpm for 5 minutes to separate plasma, collecting the upper plasma sample into a sample tube, and freezing the plasma sample in a −10˜−30° C. refrigerator within 30 minutes and transferring to a −60˜−90° C. refrigerator within 24 hours.
Sample testing and data processing: LC/MS/MS testing, WinNonlin for fitting and pharmacokinetic parameter calculation.

Δ T m (TEAD2) [2]	Δ T m (TEAD3) [3]	Δ T m (TEAD4) [4]	mouse half-life [5]	human half-life [6]	IC50 [7]	IC50 [8]	SMILES	Δ T m (TEAD1) [1]	also measured
++	++	++++	–	–	170 nM	250 nM	CP(C)(=O)c1ccc(Nc2ccc(C(F)(F)F)cc2)c(-c2nc(OC3COC3)cs2)c1 [Compound 7]	++++	binding ability to each subtype of TEAD family proteins (TEAD family proteins): good binding abilities
+	+	+++	–	–	160 nM	210 nM	CP(C)(=O)c1ccc(Nc2ccc(C(F)(F)F)cc2)c(-c2nccc(OC3CCOC3)n2)c1 (stereo not drawn) [Compound 18]	++++	–
+	+	++	–	–	690 nM	810 nM	CP(C)(=O)c1ccc(NC2CCC(F)(F)CC2)c(-c2nccc(OC3COC3)n2)c1 [Compound 30]	+++	–
+	+	++++	–	–	140 nM	–	CCP(=O)(CC)c1ccc(Nc2ccc(C(F)(F)F)cc2)c(-c2nccc(OC3COC3)n2)c1 [Compound 66]	++++	–

Further lines, the compound ahead of its results:

SMILES	Δ T m (TEAD2) [2]	Δ T m (TEAD3) [3]	Δ T m (TEAD4) [4]	mouse half-life [5]	human half-life [6]	IC50 [7]	IC50 [8]	Δ T m (TEAD1) [1]	also measured
Cn1cnc(-c2cc(P3(=O)CCNCC3)ccc2Nc2ccc(C(F)(F)F)cc2)c1 [Compound 1]	+++	++	+++	1.56 h	5.98 h	–	–	+++	metabolic stability [5]: good metabolic stabilities; metabolic stability [6]: good metabolic stabilities
CP(C)(=O)c1ccc(Nc2ccc(C(F)(F)F)cc2)c(-c2nccc(N3CC[C@H](O)C3)n2)c1 [Compound 9]	++	+	+++	1.43 h	0.488 h	–	–	+++	–
CP(C)(=O)c1cc(-c2nccc(OC3COC3)n2)c(Nc2ccc(C(F)(F)F)cc2)s1 [Compound 24]	++	+	++++	–	–	180 nM	290 nM	++++	–
Cn1cnc(-c2cc(P(C)(C)=O)ccc2Nc2ccc(C(F)(F)F)cc2)c1 [Compound 64]	–	–	–	> 3.1 h	> 3.1 h	–	–	++++	binding ability to each subtype of TEAD family proteins (TEAD family proteins): good binding abilities; metabolic stability [5]: good metabolic stabilities; metabolic stability [6]: good metabolic stabilities; F % ([9]; CD-1 mice, IG 10 mg/kg vs IV 1 mg/kg): 87.1%; AUC0-t ([9]; CD-1 mice, single IG 10 mg/kg): 57458 ng·h/mL; AUC0-∞ ([9]; CD-1 mice, single IG 10 mg/kg): 69572 ng·h/mL; Cmax ([9]; CD-1 mice, single IG 10 mg/kg): 4063 ng/mL; MRT0-t ([9]; CD-1 mice, single IG 10 mg/kg): 8.16 h; MRT0-∞ ([9]; CD-1 mice, single IG 10 mg/kg): 13.3 h; Tmax ([9]; CD-1 mice, single IG 10 mg/kg): 2.67 h; t1/2 ([9]; CD-1 mice, single IG 10 mg/kg): 9.43 h; AUC0-t ([9]; CD-1 mice, single IV 1 mg/kg): 6596 ng·h/mL; AUC0-∞ ([9]; CD-1 mice, single IV 1 mg/kg): 7208 ng·h/mL; CL ([9]; CD-1 mice, single IV 1 mg/kg): 2.33 mL/min/kg; MRT0-t ([9]; CD-1 mice, single IV 1 mg/kg): 5.85 h; MRT0-∞ ([9]; CD-1 mice, single IV 1 mg/kg): 8.26 h; Vss ([9]; CD-1 mice, single IV 1 mg/kg): 1.15 L/kg; t1/2 ([9]; CD-1 mice, single IV 1 mg/kg): 6.98 h; pharmacokinetic properties in mice ([9]; mice): good pharmacokinetic properties
